Experiment [1] addresses T1, Estrogen receptor beta (Homo sapiens, UniProt Q92731). The experiment in a line: blockers of SRC-3 recruitment to ERβ – biochemical, ELISA, streptavidin-HRP readout, orthogonal assay, confirmation (AID 1060). (In general: An ELISA detects its analyte on a solid surface through an enzyme-linked reagent.)
In the next experiment the target is T2, Bcl-2-like protein 10 (Homo sapiens, UniProt Q9HD36).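 Also: fluorescence polarization from a fluorescein-labelled TR3 peptide binding purified Bcl-B.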
T2 sequence (Q9HD36 whole entry): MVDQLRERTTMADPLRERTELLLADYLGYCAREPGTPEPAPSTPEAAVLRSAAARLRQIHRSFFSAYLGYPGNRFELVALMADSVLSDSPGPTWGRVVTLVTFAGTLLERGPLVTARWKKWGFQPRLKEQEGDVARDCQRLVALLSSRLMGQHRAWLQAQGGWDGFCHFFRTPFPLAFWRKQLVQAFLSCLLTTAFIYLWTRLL
The experiment in a line: Bcl-B/TR3 peptide binding disruption – biochemical, fluorescence polarization, FITC-TR3 peptide, selectivity assay for Bfl-1 inhibitor project, primary screen (AID 748). (In general: Polarisation of emitted light reports the rotation of a fluorescent probe.)

The target in experiment [2] is T1, Estrogen receptor beta.
The next experiment addresses Estrogen receptor (Homo sapiens, UniProt P03372).
In experiment [3] the target is T3, Zinc finger protein mex-5 (Caenorhabditis elegans, UniProt Q9XUB2).
T3 sequence (Q9XUB2 whole entry): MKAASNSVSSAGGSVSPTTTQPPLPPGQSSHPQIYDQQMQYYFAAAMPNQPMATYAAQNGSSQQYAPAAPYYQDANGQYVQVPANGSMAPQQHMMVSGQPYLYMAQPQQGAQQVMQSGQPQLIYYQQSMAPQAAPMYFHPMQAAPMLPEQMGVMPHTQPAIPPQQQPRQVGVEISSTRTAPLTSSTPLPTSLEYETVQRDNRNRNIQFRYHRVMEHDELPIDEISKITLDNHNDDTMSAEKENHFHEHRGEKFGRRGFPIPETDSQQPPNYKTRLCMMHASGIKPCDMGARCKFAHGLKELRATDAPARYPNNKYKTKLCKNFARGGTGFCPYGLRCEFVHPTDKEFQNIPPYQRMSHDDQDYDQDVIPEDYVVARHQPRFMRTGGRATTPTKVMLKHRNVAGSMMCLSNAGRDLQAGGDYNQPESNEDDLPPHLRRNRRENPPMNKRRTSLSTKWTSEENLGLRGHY
The experiment in a line: potency of MEX-5 RNA-binding blockers – biochemical, C. elegans, fluorescence polarization, dose response (AID 1960).

In another experiment the target is NADPH oxidase 1 (Homo sapiens, UniProt Q9Y5S8). In kind it is functional, cell-based.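 Also: Cell-based assay with luminescence read-out, IC50 derived from inhibitor dose-response curves; intracellular ROS from endogenous NOX1 in intact HT29 colon cancer cells; potency of inhibitors that lower the ROS luminescence signal.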
Experiment [4] has as its target Inward rectifier potassium channel 2 (Mus musculus, UniProt P35561). The experiment in a line: Manual electrophysiological patch clamp assay for SAR compounds that inhibit/block inward-rectifying potassium ion channel Kir2.1. [Related pubchem assays: 1843 (Summary assay for Kir2.1 inhibitor assays.), 1672 (Primary HTS of 305616 compounds where 2592 were identified as active.)]. Format: functional. (In general: The patch-clamp technique gives a direct electrical read-out from membranes.)

Experiment [5] in a line: Trypanosoma cruzi growth suppression in host cells – NIH3T3 host cells, beta-gal luminescence, confirmation (AID 2044).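 Also: intracellular parasites grown in NIH/3T3 mouse fibroblasts as host cells; luminescent beta-galactosidase reporter signal from transgenic T. cruzi replicating inside host cells; inhibitors lower the luminescence signal.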 In kind it is functional, cell-based.
The nature of experiment [6]: NIH3T3 cell viability loss – ATP luminescence, mouse fibroblasts, counter-screen, dose response (AID 2010).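 Also: cells exposed to compound for about 90 hours before reading.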 Format: functional, cell-based.
The nature of experiment [7]: NIH-3T3 fibroblast cytotoxicity, dose response, cytotoxicity control, cell-based, fluorescence, Alamar Blue, secondary assay (AID 2327).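 Also: NIH-3T3 mouse fibroblasts cultured with fluconazole at 8 µg/mL.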 In kind it is functional.
The next experiment deals with T4, Galanin receptor type 3 (Homo sapiens, UniProt O60755).
T4 sequence (O60755 whole entry): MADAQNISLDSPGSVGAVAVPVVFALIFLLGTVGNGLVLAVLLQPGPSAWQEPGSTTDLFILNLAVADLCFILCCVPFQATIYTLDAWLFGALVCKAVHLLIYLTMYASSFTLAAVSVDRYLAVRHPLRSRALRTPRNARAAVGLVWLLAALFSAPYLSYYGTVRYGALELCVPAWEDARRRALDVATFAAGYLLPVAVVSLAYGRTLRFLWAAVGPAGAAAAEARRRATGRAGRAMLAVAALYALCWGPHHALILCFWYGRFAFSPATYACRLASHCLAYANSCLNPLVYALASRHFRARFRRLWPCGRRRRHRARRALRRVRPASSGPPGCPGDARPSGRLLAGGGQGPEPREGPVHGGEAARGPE
The experiment in a line: Fluorescence-based cell-based primary high throughput dose response assay to identify antagonists of the Galanin Receptor 3 (GalR3). In kind it is functional.

For experiment [8], the target named is T5, Neuropeptide Y receptor type 2 (Homo sapiens, UniProt P49146).
T5 sequence (P49146 whole entry): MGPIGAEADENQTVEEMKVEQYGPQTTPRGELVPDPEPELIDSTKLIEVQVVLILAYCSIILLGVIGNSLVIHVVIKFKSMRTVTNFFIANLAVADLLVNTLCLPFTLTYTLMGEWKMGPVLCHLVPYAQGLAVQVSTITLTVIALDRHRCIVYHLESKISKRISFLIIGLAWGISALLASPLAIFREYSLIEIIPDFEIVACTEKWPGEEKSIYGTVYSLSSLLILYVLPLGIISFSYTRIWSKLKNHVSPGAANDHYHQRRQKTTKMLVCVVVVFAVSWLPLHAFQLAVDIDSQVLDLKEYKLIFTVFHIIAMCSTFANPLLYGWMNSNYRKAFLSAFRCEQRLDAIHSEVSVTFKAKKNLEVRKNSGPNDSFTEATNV
The experiment in a line: IC50 for human NPY-Y2 blockade – cell-based, counter-screen for NPY-Y1 antagonist project, dose response (AID 1278). In kind it is functional.

In the next experiment the test system is INS1. The experiment in a line: INS-1E survival protection against cytokine death – cell-based, luminescence, retest, dose response (AID 449756).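 Also: cell death triggered by IL-1 beta plus TNF-alpha plus IFN-gamma mixture; protective hits raise ATP signal compared with cytokine alone wells.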 In kind it is functional. The note with it: Rattus norvegicus.
For another experiment, the target named is Protein Wnt-3a (Mus musculus, UniProt P27467). The experiment in a line: antagonism of Wnt3a pathway luciferase reporter – Wnt-LIGHT cells, luminescence, selectivity assay for Gli-SUFU antagonist project, dose response (AID 651570).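 Also: Wnt-LIGHT reporter cells stimulated with conditioned medium from Wnt3a-producing cells.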 In kind it is functional. The note with it: read-out: IC50_Mean.
A further experiment is described as follows: cells. In kind it is functional, cell-based. The note with it: HEK-CNG.
Experiment [9] has as its target T6, Neuropeptide Y receptor type 1 (Homo sapiens, UniProt P25929).
T6 sequence (P25929 whole entry): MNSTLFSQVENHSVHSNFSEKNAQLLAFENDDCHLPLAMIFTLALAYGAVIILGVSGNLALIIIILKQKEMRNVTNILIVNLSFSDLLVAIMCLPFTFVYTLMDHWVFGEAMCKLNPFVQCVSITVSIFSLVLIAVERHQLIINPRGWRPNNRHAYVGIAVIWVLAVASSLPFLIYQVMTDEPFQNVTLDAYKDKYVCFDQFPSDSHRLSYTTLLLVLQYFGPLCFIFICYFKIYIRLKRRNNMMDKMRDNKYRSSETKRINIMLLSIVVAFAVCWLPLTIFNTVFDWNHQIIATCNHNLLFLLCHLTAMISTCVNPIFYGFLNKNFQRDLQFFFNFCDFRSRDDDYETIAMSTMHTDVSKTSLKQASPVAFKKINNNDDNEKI
The experiment in a line: IC50 of human NPY-Y1 blockers – cell-based, dose response (AID 1277). In kind it is functional.

Experiment [10] is described as follows: HEK-293T cell viability reduction – luminescence, B-cell screen hits, cytotoxicity control for BCR NF-kB inhibitor project, dose response (AID 489021).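 Also: HEK-293T cells carrying an NF-kB luciferase reporter; cells exposed to compound for about 14 hours before viability readout.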 Format: functional, cell-based.
Another experiment addresses T7, Leucine aminopeptidase (Plasmodium falciparum 3D7, UniProt Q8IL11).
T7 sequence (Q8IL11 whole entry): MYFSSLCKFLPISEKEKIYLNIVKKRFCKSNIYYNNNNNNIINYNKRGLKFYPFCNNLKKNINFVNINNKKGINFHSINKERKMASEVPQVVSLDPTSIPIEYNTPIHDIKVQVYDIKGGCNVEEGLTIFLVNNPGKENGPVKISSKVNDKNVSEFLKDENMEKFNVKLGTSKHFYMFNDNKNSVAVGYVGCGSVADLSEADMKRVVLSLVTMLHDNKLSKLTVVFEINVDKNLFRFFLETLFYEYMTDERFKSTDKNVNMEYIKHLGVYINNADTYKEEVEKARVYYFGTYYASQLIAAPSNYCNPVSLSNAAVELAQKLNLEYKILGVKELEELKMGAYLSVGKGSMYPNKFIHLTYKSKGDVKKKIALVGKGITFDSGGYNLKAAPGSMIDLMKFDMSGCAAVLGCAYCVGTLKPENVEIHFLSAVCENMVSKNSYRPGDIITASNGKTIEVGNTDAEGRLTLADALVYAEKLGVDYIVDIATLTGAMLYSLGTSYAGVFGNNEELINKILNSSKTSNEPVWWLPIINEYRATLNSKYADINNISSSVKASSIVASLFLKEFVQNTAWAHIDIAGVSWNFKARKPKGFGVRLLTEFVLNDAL
The experiment in a line: P. falciparum M17LAP inhibitors, primary screen, biochemical, fluorogenic H-Leu-NHMec substrate, 1536-well (AID 1619). Format: functional.

Experiment [11] concerns the target T8, Long-chain-fatty-acid--AMP ligase FadD28 (Mycobacterium tuberculosis, UniProt P9WQ59).
T8 sequence (P9WQ59 whole entry): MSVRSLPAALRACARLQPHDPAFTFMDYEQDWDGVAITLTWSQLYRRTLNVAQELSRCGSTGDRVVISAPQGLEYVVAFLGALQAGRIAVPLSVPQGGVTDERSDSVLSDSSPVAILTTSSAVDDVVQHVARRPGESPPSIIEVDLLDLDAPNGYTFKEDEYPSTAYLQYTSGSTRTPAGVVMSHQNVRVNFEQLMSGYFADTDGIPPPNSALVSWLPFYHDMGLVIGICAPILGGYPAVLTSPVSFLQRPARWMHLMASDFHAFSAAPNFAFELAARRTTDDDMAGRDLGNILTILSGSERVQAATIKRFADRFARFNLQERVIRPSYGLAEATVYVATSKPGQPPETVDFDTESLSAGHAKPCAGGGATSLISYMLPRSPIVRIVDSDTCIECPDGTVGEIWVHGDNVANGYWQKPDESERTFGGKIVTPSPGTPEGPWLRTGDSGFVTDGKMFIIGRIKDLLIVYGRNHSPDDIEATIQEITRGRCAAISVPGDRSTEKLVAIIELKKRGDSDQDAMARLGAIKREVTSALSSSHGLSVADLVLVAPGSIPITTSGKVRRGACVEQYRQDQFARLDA
The experiment in a line: Fluorescence polarization aasay to screen for inhibitors that compete for the binding of FadD28 to a bisubstrate Measured in Biochemical System Using Plate Reader - 2147-01_Inhibitor_Dose_CherryPick_Activity. Format: functional, Mycobacterium tuberculosis H37Rv.

The next experiment has as its target Procathepsin L (Homo sapiens, UniProt P07711). The experiment in a line: CTSL1 protease inhibition – biochemical, QFRET, 1536-well, counter-screen for M1/M17 aminopeptidase inhibitor project, dose response (AID 2214).
A further experiment addresses Aspartyl aminopeptidase (Plasmodium falciparum 3D7, UniProt Q8I2J3). The experiment in a line: Counterscreen for inhibitors of M1 and M17 aminopeptidases: QFRET-based biochemical high throughput dose response assay for inhibitors of the Plasmodium falciparum M18 Aspartyl Aminopeptidase (PFM18AAP). [Related PubChem assays: 1619 (Screening assay (M17LAP inhibitors).), 1445 (Screening assay (M1AAP inhibitors).)].

Active and inactive are the calls of the source.

T1 sequence (Q92731 whole entry): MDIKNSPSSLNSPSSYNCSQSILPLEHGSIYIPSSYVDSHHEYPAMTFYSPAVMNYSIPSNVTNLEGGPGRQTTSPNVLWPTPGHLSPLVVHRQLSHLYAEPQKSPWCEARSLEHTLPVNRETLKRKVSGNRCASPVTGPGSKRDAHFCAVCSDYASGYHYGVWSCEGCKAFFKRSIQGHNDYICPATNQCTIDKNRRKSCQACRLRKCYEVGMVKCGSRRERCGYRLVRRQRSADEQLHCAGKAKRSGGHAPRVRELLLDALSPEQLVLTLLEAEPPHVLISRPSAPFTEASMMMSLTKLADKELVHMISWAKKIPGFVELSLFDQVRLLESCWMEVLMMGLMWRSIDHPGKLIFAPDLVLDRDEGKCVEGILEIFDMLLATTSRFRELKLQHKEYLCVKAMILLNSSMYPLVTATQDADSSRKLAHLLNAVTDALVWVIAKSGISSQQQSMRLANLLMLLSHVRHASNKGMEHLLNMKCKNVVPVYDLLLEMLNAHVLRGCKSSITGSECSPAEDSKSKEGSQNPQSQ
Sequence of NADPH oxidase 1 (Q9Y5S8 whole entry): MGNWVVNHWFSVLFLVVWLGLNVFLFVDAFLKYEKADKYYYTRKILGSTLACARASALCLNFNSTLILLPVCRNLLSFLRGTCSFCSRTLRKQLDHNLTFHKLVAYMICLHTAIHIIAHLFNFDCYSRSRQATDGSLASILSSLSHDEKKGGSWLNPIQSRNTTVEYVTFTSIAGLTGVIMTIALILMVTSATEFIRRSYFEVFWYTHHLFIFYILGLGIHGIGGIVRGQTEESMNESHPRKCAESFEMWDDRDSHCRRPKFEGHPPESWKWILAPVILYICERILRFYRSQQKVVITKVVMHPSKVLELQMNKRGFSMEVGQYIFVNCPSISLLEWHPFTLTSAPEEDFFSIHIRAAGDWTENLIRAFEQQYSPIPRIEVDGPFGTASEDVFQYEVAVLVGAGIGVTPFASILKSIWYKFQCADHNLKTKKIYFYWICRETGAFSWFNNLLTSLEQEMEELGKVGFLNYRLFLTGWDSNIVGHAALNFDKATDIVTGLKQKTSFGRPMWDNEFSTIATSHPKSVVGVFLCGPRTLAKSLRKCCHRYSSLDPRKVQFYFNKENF
Sequence of Inward rectifier potassium channel 2 (P35561 whole entry): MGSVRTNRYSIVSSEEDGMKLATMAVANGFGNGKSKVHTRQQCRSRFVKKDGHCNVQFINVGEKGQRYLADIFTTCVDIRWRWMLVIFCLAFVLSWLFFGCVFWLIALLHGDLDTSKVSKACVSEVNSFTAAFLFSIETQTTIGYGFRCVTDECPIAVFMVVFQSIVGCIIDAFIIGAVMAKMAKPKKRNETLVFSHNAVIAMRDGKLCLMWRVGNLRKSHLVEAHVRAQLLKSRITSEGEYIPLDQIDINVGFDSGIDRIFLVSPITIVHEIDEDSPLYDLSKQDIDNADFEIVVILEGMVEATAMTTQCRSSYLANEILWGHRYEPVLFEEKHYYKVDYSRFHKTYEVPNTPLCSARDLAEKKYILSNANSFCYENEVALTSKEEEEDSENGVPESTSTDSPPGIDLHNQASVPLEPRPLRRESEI
Sequence of Estrogen receptor (P03372 whole entry): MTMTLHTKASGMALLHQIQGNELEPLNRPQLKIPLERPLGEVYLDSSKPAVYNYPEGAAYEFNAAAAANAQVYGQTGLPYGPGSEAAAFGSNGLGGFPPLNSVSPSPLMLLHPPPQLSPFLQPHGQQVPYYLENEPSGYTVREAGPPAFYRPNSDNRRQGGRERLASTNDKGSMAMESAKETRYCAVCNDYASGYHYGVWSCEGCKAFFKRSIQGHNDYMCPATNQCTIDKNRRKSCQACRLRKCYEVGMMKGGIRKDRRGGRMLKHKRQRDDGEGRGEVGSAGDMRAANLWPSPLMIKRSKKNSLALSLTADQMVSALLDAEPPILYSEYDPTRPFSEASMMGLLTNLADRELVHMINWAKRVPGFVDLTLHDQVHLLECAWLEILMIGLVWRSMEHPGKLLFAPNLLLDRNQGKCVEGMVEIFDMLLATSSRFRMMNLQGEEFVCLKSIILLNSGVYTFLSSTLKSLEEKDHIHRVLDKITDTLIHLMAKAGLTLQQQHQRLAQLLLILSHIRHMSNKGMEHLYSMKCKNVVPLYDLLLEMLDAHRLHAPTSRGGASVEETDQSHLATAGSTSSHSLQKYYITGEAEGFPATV
Sequence of Aspartyl aminopeptidase (Q8I2J3 whole entry): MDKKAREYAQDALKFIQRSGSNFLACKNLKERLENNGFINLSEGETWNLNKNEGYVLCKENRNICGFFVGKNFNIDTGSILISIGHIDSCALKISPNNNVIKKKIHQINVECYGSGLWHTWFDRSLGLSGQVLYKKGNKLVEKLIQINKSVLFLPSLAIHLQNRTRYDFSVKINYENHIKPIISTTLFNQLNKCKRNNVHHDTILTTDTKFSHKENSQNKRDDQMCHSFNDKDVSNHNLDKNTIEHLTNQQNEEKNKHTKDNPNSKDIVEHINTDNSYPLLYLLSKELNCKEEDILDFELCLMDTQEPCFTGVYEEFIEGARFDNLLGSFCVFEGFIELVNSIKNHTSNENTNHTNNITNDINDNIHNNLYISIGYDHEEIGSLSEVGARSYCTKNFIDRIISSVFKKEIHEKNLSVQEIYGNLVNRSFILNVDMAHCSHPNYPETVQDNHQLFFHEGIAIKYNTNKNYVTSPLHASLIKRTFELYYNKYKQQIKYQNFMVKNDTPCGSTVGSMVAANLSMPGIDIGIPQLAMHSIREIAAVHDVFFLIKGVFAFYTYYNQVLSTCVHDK
Sequence of Procathepsin L (P07711 whole entry): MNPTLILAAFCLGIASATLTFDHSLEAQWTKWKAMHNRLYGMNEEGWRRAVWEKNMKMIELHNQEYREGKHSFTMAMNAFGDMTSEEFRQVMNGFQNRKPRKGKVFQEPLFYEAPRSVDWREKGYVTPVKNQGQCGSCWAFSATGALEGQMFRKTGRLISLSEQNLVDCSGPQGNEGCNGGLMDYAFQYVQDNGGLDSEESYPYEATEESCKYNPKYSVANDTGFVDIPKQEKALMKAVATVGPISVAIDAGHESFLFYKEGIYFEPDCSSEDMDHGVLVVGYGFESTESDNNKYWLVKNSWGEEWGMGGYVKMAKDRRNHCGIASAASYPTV
Sequence of Protein Wnt-3a (P27467 whole entry): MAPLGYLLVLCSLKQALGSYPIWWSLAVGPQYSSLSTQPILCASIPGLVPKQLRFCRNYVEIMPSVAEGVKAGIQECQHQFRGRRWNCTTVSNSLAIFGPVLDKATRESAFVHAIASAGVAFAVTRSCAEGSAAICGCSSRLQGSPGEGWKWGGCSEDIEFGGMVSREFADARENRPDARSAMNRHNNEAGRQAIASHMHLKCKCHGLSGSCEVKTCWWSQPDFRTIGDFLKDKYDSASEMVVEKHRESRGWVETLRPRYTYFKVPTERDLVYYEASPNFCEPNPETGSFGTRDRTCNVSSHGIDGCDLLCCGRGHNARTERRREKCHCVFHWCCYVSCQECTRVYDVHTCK

Turning to `O=C(COC(=O)c1cccs1)NCc1ccco1`, the IC50 against Estrogen receptor beta [1] is 8.95 µM (not active); at Bcl-2-like protein 10, 85.1 µM (inactive); against Estrogen receptor beta [2], > 50 µM (not active).
The EC50 is the concentration at which the effect is half-maximal. `Cc1cc(/C=C2/C(=O)NC(=O)N(c3ccccc3)C2=O)c(C)n1-c1ccc(F)cc1`: the IC50 against Estrogen receptor is > 50 µM (not active). Besides, the EC50 in [3] was 77.3 µM (active).
In the case of `CC(O)c1ccc2c(c1)Nc1ccccc1S2` (stereo unspecified), the IC50 on NADPH oxidase 1 was 0.363 µM (active).
Turning to `COc1ccc(CNCc2ccc(OC(F)(F)F)cc2)cc1`, the IC50 in experiment [4] is 1.64 µM (active).
A word on the AC50: it is the midpoint of the concentration-response curve, whichever way the signal moves. As to `COc1ccc(-[n+]2c(-c3ccc(Cl)cc3)cn3c2CCc2ccccc2-3)cc1`, the EC50 in experiment [5] was 0.24 µM (active); in experiment [6], > 60 µM (not active); in [7], > 150 µM (inactive); in the experiment “cells” it was > 29.9 µM (inactive). Further, the IC50 on Galanin receptor type 3 was 5.02 µM (active); in [8], 10.3 µM (not active); at Protein Wnt-3a, 25.6 µM (inactive); in experiment [9] it was 7.36 µM (active); in [10], > 80 µM (inactive). Moreover, the concentration at half-maximal activity (AC50) in the experiment with INS1 is 2.08 µM (active).
In the case of `CCOc1ccc(NC(=O)C2C(C(=O)O)C3(Cl)C(Cl)=C(Cl)C2(Cl)C3(Cl)Cl)cc1` (stereo unspecified), the IC50 at Leucine aminopeptidase is < 1 µM (active); against Procathepsin L it was > 59.6 µM (not active); on Aspartyl aminopeptidase, > 73.5 µM (not active). In experiment [11], the AC50 was 11.5 µM (active).
